One data set has as its system Matricaria chamomilla. As to the kind of experiment: Postemergence herbicidal activity of mixtures in cereal crops. Format: in vivo. Particulars: after 3 weeks. How it is done:
(§1) Seeds of the desired test plant species were planted and reared as described in “Evaluation of Postemergence Herbicidal Safening in Cereal Crops” (section 37).
(§2) Treatments consisted of compound (as listed in Tables 6 and 7), fluroxypyr methylheptyl ester (MHE), and clopyralid monoethanolamine (MEA) salt alone and in combination. Weighed amounts were placed in 25 mL glass vials and dissolved in a volume of 97:3 v/v acetone/DMSO to obtain 4.5 mg ai/mL stock solutions. […] The concentrated stock solutions were diluted to 1.5 mg ai/mL with the addition of 2 volumes of an aqueous mixture containing acetone, water, isopropyl alcohol, DMSO, Agri-dex crop oil concentrate, and Triton® X-77 surfactant in a 64.7:26.0:6.7:2.0:0.7:0.01 v/v ratio. A dilution solution was prepared by mixing 1 volume of 97:3 v/v acetone/DMSO and 2 volumes of an aqueous mixture containing acetone, water, isopropyl alcohol, DMSO, Agri-dex crop oil concentrate, and Triton® X-77 surfactant in a 64.7:26.0:6.7:2.0:0.7:0.01 v/v ratio. Compound requirements are based upon a 12 mL application volume at a rate of 187 L/ha. Spray solutions of fluroxypyr MHE, clopyralid MEA, and experimental compound mixtures were prepared by adding the stock solutions to the appropriate amount of dilution solution to form 12 mL spray solution with active ingredients in two- and three-way combinations. Formulated compounds were applied to the plant material with an overhead Mandel track sprayer equipped with a 8002E nozzles calibrated to deliver 187 L/ha over an application area of 0.503 square meters at a spray height of 18 inches (43 cm) above average plant canope. Control plants were sprayed in the same manner with the solvent blank.
(§3) The treated plants and control plants were placed in a greenhouse as described above and watered by sub-irrigation to prevent wash-off of the test compounds. After 3 weeks the condition of the test plants as compared with that of the control plants was determined visually and scored on a scale of 0 to 100 percent where 0 corresponds to no injury and 100 corresponds to complete kill.
(§4) Colby's equation was used to determine the herbicidal effects expected from the mixtures (Colby, S. R. 1967. Calculation of the synergistic and antagonistic response of herbicide combinations. Weeds 15:20-22.).
(§5) The following equation was used to calculate the expected activity of mixtures containing two active ingredients, A and B: Expected=A+B−(A×B/100) • A=observed efficacy of active ingredient A at the same concentration as used in the mixture. • B=observed efficacy of active ingredient B at the same concentration as used in the mixture.
(§6) The following equation was used to calculate the expected activity of mixtures containing three active ingredients, A, B, and C: Expected=A+B+C−(A×B+B×C+A×C)/100+(A×B×C)/10000 • A=observed efficacy of active ingredient A at the same concentration as used in the mixture. • B=observed efficacy of active ingredient B at the same concentration as used in the mixture. • C=observed efficacy of active ingredient C at the same concentration as used in the mixture.

The test system of data set [1] is Triticum aestivum (spring wheat). The data set is described as above. Particulars: after 3 weeks. Format: in vivo. How it is done:
as §1, §2, §3, §4, §5, §6

Data set [2] concerns Hordeum vulgare (winter barley). The data set is described as above. The data set is classed as in vivo. Particulars: after 3 weeks. As for the experimental part:
as §1, §2, §3, §4, §5, §6

For data set [3], the system named is redroot pigweed (Amaranthus retroflexus). The data set is described as follows: Postemergence herbicidal activity. Format: in vivo. To be noted: Amaranthus retroflexus, post-emergence, 336 h, post-emergent, 140 g ai/ha, after 14 days; read-out: % Control AMARE. A digest of the protocol:
(§7)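 Plants grown 7-21 days in greenhouse (about 15 h photoperiod, 23-29° C day, 22-28° C night) to first or second true leaf stage. Compounds in acetone/water/isopropanol/DMSO carrier with crop oil concentrate and Triton X-155 sprayed overhead at 187 L/ha; controls received solvent blank. Plants sub-irrigated afterwards; dose responses analysed by probit analysis.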

Data set [4] concerns lambsquarter (Chenopodium album). The data set is described as follows: Postemergence herbicidal activity. The data set is classed as in vivo. Particulars: Chenopodium album, post-emergence, 336 h, post-emergent, 140 g ai/ha, after 14 days; read-out: % Control CHEAL. In outline:
as §7

In data set [5] the test system is velvetleaf (Abutilon theophrasti). As to the kind of experiment: Postemergence herbicidal activity. Format: in vivo. To be noted: Abutilon theophrasti, post-emergence, 336 h, post-emergent, 140 g ai/ha, after 14 days; read-out: % Control ABUTH. In outline:
as §7

The next data set deals with Veronica persica. The data set is described as follows: Postemergence herbicidal activity in cereal crops. Format: in vivo. Particulars: Veronica persica, post-emergence, 480 h, post-emergent, 17.5 g ai/ha, after 20-22 days; read-out: % Control VERPE. A digest of the protocol: (§8)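 Plants are raised in a greenhouse for 7-36 days and used at the second to third true leaf stage. Compounds in a mixed organic–aqueous carrier with crop oil and surfactant are sprayed postemergence at 187 L/ha. Treated plants return to the greenhouse with sub-irrigation, alongside blank-sprayed controls.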

A further data set has as its system barley (Hordeum vulare). As to the kind of experiment: Postemergence herbicidal activity in cereal crops. Format: in vivo. To be noted: Hordeum, post-emergence, 480 h; crop, post-emergent, 17.5 g ai/ha, after 20-22 days; read-out: % Control HORVS. In outline: as §8
A further data set concerns Lamium purpureum. As to the kind of experiment: Postemergence herbicidal activity in cereal crops. Format: in vivo. Particulars: Lamium purpureum, post-emergence, 480 h; post-emergent, 17.5 g ai/ha, after 20-22 days; read-out: % Control LAMPU. A digest of the protocol: as §8
The next data set relates to Galium aparine. The data set is described as follows: Postemergence herbicidal activity in cereal crops. The data set is classed as in vivo. Particulars: Galium aparine, post-emergence, 480 h, post-emergent, 17.5 g ai/ha, after 20-22 days; read-out: % Control GALAP. A digest of the protocol:
as §8

The subject of data set [6] is wheat (Triticum aestivum). The data set is described as follows: Postemergence herbicidal activity in cereal crops. The data set is classed as in vivo. To be noted: Triticum aestivum, post-emergence, 480 h; crop, post-emergent, 17.5 g ai/ha, after 20-22 days; read-out: % Control TRZAS. In outline: as §8
In a further data set the test system is Papaver rhoeas. The data set is described as follows: Postemergence herbicidal activity in cereal crops. The data set is classed as in vivo. To be noted: Papaver rhoeas, post-emergence, 480 h, post-emergent, 17.5 g ai/ha, after 20-22 days; read-out: % Control PAPRH. A digest of the protocol: as §8
In another data set the test system is Cyperus difformis. The data set is described as follows: Herbicidal activity in transplanted paddy rice. The data set is classed as in vivo. To be noted: Cyperus difformis, 504 h; paddy water application, 70 g ai/ha, after 3 weeks; read-out: % Control CYPDI. In outline:
(§9)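 Rice seedlings transplanted at second to third leaf stage and weeds from seed were grown in flooded mud pots in a greenhouse (~29/26 °C, 14 h photoperiod). At second or third true leaf stage, acetone stock solutions were injected into the paddy water at the high rate and ½× to 1/16× dilutions. Solvent-blank controls.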

Data set [7] deals with rice (Orysa sativa var. Japonica). As to the kind of experiment: Herbicidal activity in transplanted paddy rice. Format: in vivo. Particulars: Oryza sativa, 504 h; transplant rice (crop), paddy water application, 70 g ai/ha, after 3 weeks. In outline:
as §9

The test system of another data set is Echinochloa crus-galli. As to the kind of experiment: Herbicidal activity in transplanted paddy rice. Format: in vivo. Particulars: Echinochloa crus-galli, 504 h; paddy water application, 70 g ai/ha, after 3 weeks; read-out: % Control ECHCG. In outline:
as §9

The next data set has as its system Monochoria vaginalis. The data set is described as follows: Herbicidal activity in transplanted paddy rice. Particulars: Pontederia vaginalis, 504 h; paddy water application, 70 g ai/ha, after 3 weeks; read-out: % Control MOOVA. Format: in vivo. A digest of the protocol:
as §9

In a further data set the test system is Scirpus juncoides. The data set is described as follows: Herbicidal activity in transplanted paddy rice. The data set is classed as in vivo. Particulars: Schoenoplectiella juncoides, 504 h; paddy water application, 70 g ai/ha, after 3 weeks; read-out: % Control SCPJU. In outline: as §9
For data set [8], the system named is redroot pigweed (Amaranthus retroflexus). The data set is described as follows: Preemergence herbicidal activity. Format: in vivo. Particulars: Amaranthus retroflexus, pre-emergence, 480 h; pre-emergent, 140 g ai/ha, after 20-22 days; read-out: % Control AMARE. A digest of the protocol: (§10)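 Seeds sown in 70:30 loam (pH about 8.1, about 1.5% organic matter) and sand mix, then sprayed preemergence at 187 L/ha with a track sprayer; controls received solvent blank. Pots kept in greenhouse, about 15 h photoperiod, about 23-29° C. day and 22-28° C. night, top-irrigated.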

Data set [9] has as its system lambsquarter (Chenopodium album). The data set is described as follows: Preemergence herbicidal activity. Format: in vivo. To be noted: Chenopodium album, pre-emergence, 480 h; pre-emergent, 140 g ai/ha, after 20-22 days; read-out: % Control CHEAL. A digest of the protocol:
as §10

Data set [10] relates to velvetleaf (Abutilon theophrasti). The data set is described as follows: Preemergence herbicidal activity. The data set is classed as in vivo. Particulars: Abutilon theophrasti, pre-emergence, 480 h; pre-emergent, 140 g ai/ha, after 20-22 days; read-out: % Control ABUTH. In outline:
as §10

The mark [11] stands for this setting: Table 6, applied alone, 35 g ai/ha.
The mark [12] stands for this setting: Table 7, applied alone, 35 g ai/ha.
[13] abbreviates: Table 7, applied alone, 70 g ai/ha.

Turning to `CCCCCCC(C)OC(=O)COc1nc(F)c(Cl)c(N)c1Cl` (centres unmarked) [Fluroxypyr MHE, fluroxypyr methylheptyl ester], the “% Control MATCH Ob” value in the data set with Matricaria chamomilla (setting [11]), in the data set on Matricaria chamomilla (setting [12]) and with Matricaria chamomilla (setting [13]) was 0% each time. The “% Control TRZAS Ob” value in data set [1] (setting [11]), in data set [1] (setting [12]) and in [1] (setting [13]) was 0% each time. The “% Control HORVW Ob” value in [2] (setting [11]), in data set [2] (setting [12]) and in data set [2] (setting [13]) was 0% each time.
`CNc1c(Cl)ccc(-c2cc(N)c(Cl)c(C(=O)OC)n2)c1F` [Compound 38, 4-Amino-3-chloro-6-[4-chloro-2-fluoro-3-(methylamino)phenyl]pyridine-2-carboxylic acid, methyl ester]: the melting point (usually the temperature, or range, at which the solid turns liquid) was in the range of 148 to 149 °C. For the same compound, in data set [3], the pest or weed control at 140 g/ha amounted to 100%. In addition, the pest or weed control at 140 g/ha in data set [4] worked out at 100%. Also, the pest or weed control at 140 g/ha in data set [5] stood at 100%. Further, the pest or weed control at 17.5 g/ha in the data set on Veronica persica was 99%. Further, the pest or weed control at 17.5 g/ha in the data set on barley (Hordeum vulare) was 0%. The pest or weed control at 17.5 g/ha in the data set on Lamium purpureum amounted to 95%. The pest or weed control at 17.5 g/ha in the data set on Galium aparine worked out at 85%. For the same compound, the plant injury at 17.5 g/ha in [6] worked out at 5%. In addition, the pest or weed control at 17.5 g/ha in the data set with Papaver rhoeas turned out to be 100%. Moreover, the pest or weed control at 70 g/ha in the data set on Cyperus difformis turned out to be 100%. Further, the pest or weed control at 70 g/ha in [7] worked out at 0%. Besides, the pest or weed control at 70 g/ha in the data set with Echinochloa crus-galli turned out to be 50%. For the same compound, the pest or weed control at 70 g/ha in the data set on Monochoria vaginalis is 100%. In addition, the pest or weed control at 70 g/ha in the data set on Scirpus juncoides is 95%.
Regarding `NCCO.O=C(O)c1nc(Cl)ccc1Cl` [Clopyralid MEA, clopyralid monoethanolamine (MEA) salt], the “% Control MATCH Ob” value with Matricaria chamomilla (setting [11]) turned out to be 20%; with Matricaria chamomilla (setting [12]), 5%; in the data set with Matricaria chamomilla (setting [13]), 40%. In addition, the “% Control TRZAS Ob” value in [1] (setting [11]), in data set [1] (setting [12]) and in data set [1] (setting [13]) was 0% each time. The “% Control HORVW Ob” value in data set [2] (setting [11]), in data set [2] (setting [12]) and in data set [2] (setting [13]) was 0% throughout.
Regarding `COC(=O)c1nc(-c2ccc(F)c(OC)c2Cl)cc(N)c1Cl` [Compound 74, 4-Amino-3-chloro-6-(2-chloro-4-fluoro-3-methoxyphenyl)pyridine-2-carboxylic acid, methyl ester], the melting point fell in the range of 145 to 146 °C. Besides, the pest or weed control at 140 g/ha in data set [8] worked out at 95%. Besides, in data set [9], the pest or weed control at 140 g/ha is 95%. Further, the pest or weed control at 140 g/ha in data set [10] is 100%. For the same compound, the pest or weed control at 140 g/ha in data set [3] came out at 90%. The pest or weed control at 140 g/ha in data set [4] was 100%. In addition, the pest or weed control at 140 g/ha in data set [5] amounted to 100%. Besides, the “% Control MATCH Ob” value in the data set with Matricaria chamomilla (setting [11]) is reported as 10%. For the same compound, the “% Control TRZAS Ob” value in [1] (setting [11]) came out at 25%. The “% Control HORVW Ob” value in data set [2] (setting [11]) came to 0%.
In the case of `COc1c(C)cc(F)c(-c2cc(N)c(Cl)c(C(=O)O)n2)c1F` [Compound 93, 4-Amino-3-chloro-6-(2,6-difluoro-3-methoxy-4-methylphenyl)pyridine-2-carboxylic acid], the melting point was 167 to 168 °C. Also, the pest or weed control at 140 g/ha in data set [8] turned out to be 100%. In data set [9], the pest or weed control at 140 g/ha was determined as 100%. The pest or weed control at 140 g/ha in data set [10] is 100%. In addition, in data set [3], the pest or weed control at 140 g/ha was found to be 100%. In [4], the pest or weed control at 140 g/ha was determined as 100%. Further, the pest or weed control at 140 g/ha in data set [5] was determined as 100%. Also, in the data set on Matricaria chamomilla (setting [11]), the “% Control MATCH Ob” value is 45%. Further, in [1] (setting [11]), the “% Control TRZAS Ob” value was 15%. Also, the “% Control HORVW Ob” value in [2] (setting [11]) is reported as 10%.
